The numbers were not newly measured in patent US7578964B2, “Powder injection molding composition and method of use” (priority 2001, dated 2009), which cites them from elsewhere.

The conditions of data set [1]: for Octanol - Water Partition Coefficient log POW: Handbook of Environmental Data on Organic Compounds, 4th Edition.
The conditions of data set [2]: solute solubility in water at 298.15 K; NIST Chemistry WebBook.

For the compound `CC(C)=O` [Acetone], the “Octanol - Water Partition Coefficient log POW” value in data set [1] is on record as −0.24. Besides, the “Henry's Law Constant k^0H” value in data set [2] is 30 mol/Kg*bar.

Take `c1ccccc1` [Benzene]: the “Henry's Law Constant k^0H” value in data set [2] is on record as 0.18 mol/Kg*bar.

In the case of `ClC(Cl)(Cl)Cl` [Carbon Tetrachloride], the “Octanol - Water Partition Coefficient log POW” value in data set [1] is listed as 2.64. In addition, the “Henry's Law Constant k^0H” value in data set [2] is 0.03 mol/Kg*bar.

In the case of `CCOCC` [Diethyl Ether], the “Octanol - Water Partition Coefficient log POW” value in data set [1] is given as 0.77. Moreover, the “Henry's Law Constant k^0H” value in data set [2] is reported as 0.78-1.2 mol/Kg*bar.

Turning to `C1COCCO1` [Dioxane], in data set [1], the “Octanol - Water Partition Coefficient log POW” value is listed as −0.42.

For `CCO` [Ethanol], in data set [2], the “Henry's Law Constant k^0H” value is given as 200 mol/Kg*bar.

With `CCOC(C)=O` [Ethyl Acetate], the “Octanol - Water Partition Coefficient log POW” value in data set [1] is 0.66. Further, the “Henry's Law Constant k^0H” value in data set [2] was 8.9 mol/Kg*bar.

As to `CCCCCC` [Hexane], the “Octanol - Water Partition Coefficient log POW” value in data set [1] is on record as 4. Besides, in data set [2], the “Henry's Law Constant k^0H” value is reported as 0.001 mol/Kg*bar.

Consider `CC(C)O` [Isopropanol], for which, in data set [2], the “Henry's Law Constant k^0H” value is on record as 130 mol/Kg*bar.

On to `CCC(C)=O` [MEK], for which, in data set [1], the “Octanol - Water Partition Coefficient log POW” value is 0.28.

Turning to `CO` [Methanol], the “Octanol - Water Partition Coefficient log POW” value in data set [1] was −0.82.

On to `ClCCl` [Methylene Chloride], for which, in data set [2], the “Henry's Law Constant k^0H” value was 0.41 mol/Kg*bar.

With `C1CCOC1` [THF], in data set [1], the “Octanol - Water Partition Coefficient log POW” value is recorded as 0.45.

As to `Cc1ccccc1` [Toluene], in data set [2], the “Henry's Law Constant k^0H” value is given as 0.15 mol/Kg*bar.

Turning to `ClC=C(Cl)Cl` [Trichloroethylene], the “Octanol - Water Partition Coefficient log POW” value in data set [1] is listed as 2.42. The “Henry's Law Constant k^0H” value in data set [2] is on record as 0.11 mol/Kg*bar.

As for `O=C1CCCCCN1` [caprolactam, ε-caprolactam], the “log POW value” in data set [1] (stated in text as known to those skilled in the art) is “about 0.12”.
